Results as given in US20120214847A1, “2-[1-PHENYL-5-HYDROXY-4a-SUBSTITUTED-HEXAHYDROCYCLOPENTA[F]INDAZOL-5-YL]ETHYL PHENYL DERIVATIVES AS GLUCOCORTICOID RECEPTOR LIGANDS” (Merck Sharp & Dohme Corp., priority 2009, published 2012).

Target: T1, human GR (Homo sapiens, UniProt P04150)
T1 construct: naturally expresses the human GR; endogenous in cells
T1 sequence (P04150 1-777): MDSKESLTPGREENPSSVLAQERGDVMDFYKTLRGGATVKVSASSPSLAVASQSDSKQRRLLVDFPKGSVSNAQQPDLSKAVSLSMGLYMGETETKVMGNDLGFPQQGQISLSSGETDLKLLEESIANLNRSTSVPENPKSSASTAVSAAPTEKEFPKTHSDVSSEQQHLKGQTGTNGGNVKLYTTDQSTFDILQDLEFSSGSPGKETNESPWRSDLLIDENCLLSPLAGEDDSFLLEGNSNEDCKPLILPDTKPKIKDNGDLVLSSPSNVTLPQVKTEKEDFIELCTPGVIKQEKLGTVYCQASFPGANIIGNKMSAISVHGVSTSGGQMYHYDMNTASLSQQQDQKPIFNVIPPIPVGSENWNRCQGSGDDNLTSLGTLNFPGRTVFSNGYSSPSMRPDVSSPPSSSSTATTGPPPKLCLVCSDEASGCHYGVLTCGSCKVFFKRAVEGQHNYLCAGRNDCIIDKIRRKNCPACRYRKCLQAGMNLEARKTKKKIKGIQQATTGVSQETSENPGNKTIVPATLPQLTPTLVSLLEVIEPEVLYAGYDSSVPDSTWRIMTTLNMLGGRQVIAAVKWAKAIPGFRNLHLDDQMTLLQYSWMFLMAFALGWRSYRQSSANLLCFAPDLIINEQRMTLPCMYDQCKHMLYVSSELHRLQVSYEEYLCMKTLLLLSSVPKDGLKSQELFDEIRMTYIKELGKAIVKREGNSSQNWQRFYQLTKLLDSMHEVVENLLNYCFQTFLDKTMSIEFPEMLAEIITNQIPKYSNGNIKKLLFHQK
Test: Transrepression assay (GITAR), TNFα-β-lactamase reporter in U937 cells
Assay type: cell-based
Details: for EC50 / Transrepression U937 Cells GITAR Emax (%): U937 cells; for EC50: IP = inflection point; for Emax: U-937, U937 cells; for Emax / Transrepression U937 Cells GITAR Emax (%): activity repressed by 100 nM dexamethasone alone set as 100%
Excerpt: Transrepression Assay (GITAR)
This assay assesses the ability of test compounds to control transcription from the TNFα-β-lactamase reporter gene in U937 cells, a human myelomonocytic leukemia cell line that naturally expresses the human GR. The assay measures compound dependent-repression of the TNFa promoter linked to a reporter gene.
The human U937 cells that had been stablely transfected with the TNF-a promoter driving ˜-lactamase are used for this assay. U937 cells contain an endogenous glucocorticoid receptor (GR). Cells are maintained in RPMI 1640 Growth medium (GibcoCat#11875-093) containing 25 mM HEPES, 10% FBS, 2 mM L-Glutamine, 1 mM Sodium pyruvate, 25 μg/ml Gentamicin (Gibed Cat#1571 0-064), 1:1000 2-Mercaptoethanol (Gibco Cat#21985-023) and 0.8 mg/ml G418 (Gibco Cat#10131-027). The density of the cells in the flask needs to be about 1×10^6-3×10^6/ml at the time of harvest. Usually, the cells are split to 1.2˜1.4×10^5/ml (1:10) 3 days prior to the assay. 50,000 cells/well are plated in 96 well black-walled plates the day of assay. Test compounds are added 10 J.lL/well, and cells are incubated at 37° C. for 30˜45 min. For assaying compounds, first dilute 1:10 in DMSO to make 1 mM, then further dilute 1:100 in medium to make 10× stock prior to adding to the cells. Add 50 ng/ml PMA (Sigma, cat#P8139) 10 μL/well to a final concentration 5 ng/ml, and 1 μg/ml LPS (Sigma, cat#L4130) 10 μL/well to a final concentration 100 ng/ml. Incubate cells at 370 C overnight for −18 hr. PMA is stored frozen as […] in DMSO. Dilute 1:10 in DMSO for a working stock of 10 μg/ml and store at −20° C. For assaying, dilute the 10 μg/ml working stock 1:200 in medium to make a 10× solution (50 ng/ml). Store frozen LPS at 1 mg/ml in PBS, dilute 1:1000 in medium to make 10×μg/ml) for the assay. Add 6× loading buffer (CCF2-AM) 20 μL/well, and incubate at room temperature for 70-90 min. […] The activity repressed by 100 nM dexamethasone alone is set as 100% activity.

SMILES | EC50 [µM] | Emax [%] | Transrepression U937 Cells GITAR Emax (%)
NC(=O)C(O)c1ccccc1CC[C@]1(O)CCC2=Cc3c(cnn3-c3ccc(F)cc3)C[C@@]21C1CC1 (single isomer, unassigned) [Example 3b] | 0.068 | 85 | 
CC[C@]12Cc3cnn(-c4ccccc4)c3C=C1CC[C@@]2(O)CC(O)c1ccccn1 (single isomer, unassigned) [Example 67a] | 0.217 | 54 | 
CC[C@]12Cc3cnn(-c4ccccc4)c3C=C1CC[C@@]2(O)CC(O)c1ccccn1 (single isomer, unassigned) [Example 67b] | 0.277 |  | 44
CC[C@]12Cc3cnn(-c4ccc(F)cc4)c3C=C1CC[C@@]2(O)CC(O)c1ccc(F)cn1 (single isomer, unassigned) [Example 69a] | 0.111 | 74 | 
CC[C@]12Cc3cnn(-c4ccc(F)cc4)c3C=C1CC[C@@]2(O)CC(O)c1ccc(F)cn1 (single isomer, unassigned) [Example 69b] | 0.094 |  | 80
OC(C[C@]1(O)CCC2=Cc3c(cnn3-c3ccc(F)cc3)C[C@@]21C1CC1)c1ccc(F)cn1 (single isomer, unassigned) [Example 79a] | 0.167 | 41 | 
NC(=O)c1cccnc1CC[C@]1(O)CCC2=Cc3c(cnn3-c3ccc(F)cc3)C[C@@]21C1CC1 [Example 1, 2-{2-[(4aR,5R)-4a-Cyclopropyl-1-(4-fluorophenyl)-5-hydroxy-1,4,4a,5,6,7-hexahydrocyclopenta[f]indazol-5-yl]ethyl}pyridine-3-carboxamide] | 0.055 | 77 | 
NC(=O)c1cc(F)cnc1CC[C@]1(O)CCC2=Cc3c(cnn3-c3ccc(F)cc3)C[C@@]21C1CC1 [Example 4, 2-{2-[(4aR,5R)-4a-Cyclopropyl-1-(4-fluorophenyl)-5-hydroxy-1,4,4a,5,6,7-hexahydrocyclopenta[f]indazol-5-yl]ethyl}-5-fluoropyridine-3-carboxamide] | 0.083 | 71 | 
CC[C@]12Cc3cnn(-c4cccnc4)c3C=C1CC[C@@]2(O)CCc1ccccc1C#N [Example 5, 2-{2-[(4aS,5R)-4a-Ethyl-5-hydroxy-1-(pyridin-3-yl)-1,4,4a,5,6,7-hexahydrocyclopenta[f]indazol-5-yl]ethyl}benzonitrile] | 0.031 | 80 | 
CC[C@]12Cc3cnn(-c4ccccc4)c3C=C1CC[C@@]2(O)CCc1ccc(F)cc1C(N)=O [Example 6] | 0.143 | 75 | 
NC(=O)c1ccccc1CC[C@]1(O)CCC2=Cc3c(cnn3-c3cccc(F)c3)C[C@@]21C1CC1 [Example 7, 2-{2-[(4aR,5R)-4a-Cyclopropyl-1-(3-fluorophenyl)-5-hydroxy-1,4,4a,5,6,7-hexahydrocyclopenta[f]indazol-5-yl]ethyl}benzamide] | 0.143 | 67 | 
CC[C@]12Cc3cnn(-c4ccc(F)cc4)c3C=C1CC[C@@]2(O)CCc1ccc(F)cc1C(N)=O [Example 8, 2-{2-[(4aS,5R)-4a-Ethyl-1-(4-fluorophenyl)-5-hydroxy-1,4,4a,5,6,7-hexahydrocyclopenta[f]indazol-5-yl]ethyl}-5-fluorobenzamide] | 0.09 | 88 | 
CC[C@]12Cc3cnn(-c4cccnc4)c3C=C1CC[C@@]2(O)CCc1ccc(F)cc1C#N [Example 9, 2-{2-[(4aS,5R)-4a-Ethyl-5-hydroxy-1-(pyridin-3-yl)-1,4,4a,5,6,7-hexahydrocyclopenta[f]indazol-5-yl]ethyl}-5-fluorobenzonitrile] | 0.12 | 71 | 
CC[C@]12Cc3cnn(-c4cccnc4)c3C=C1CC[C@@]2(O)CCc1cccc(F)c1C#N [Example 10, 2-{2-[(4aS,5R)-4a-Ethyl-5-hydroxy-1-(pyridin-3-yl)-1,4,4a,5,6,7-hexahydrocyclopenta[f]indazol-5-yl]ethyl}-6-fluorobenzonitrile] | 0.113 | 64 | 
CC[C@]12Cc3cnn(-c4cccc(F)c4)c3C=C1CC[C@@]2(O)CCc1ccccc1C(N)=O [Example 11, 2-{2-[(4aS,5R)-4a-Ethyl-1-(3-fluorophenyl)-5-hydroxy-1,4,4a,5,6,7-hexahydrocyclopenta[f]indazol-5-yl]ethyl}benzamide] | 0.08 | 82 | 
CC[C@]12Cc3cnn(-c4cccc(F)c4)c3C=C1CC[C@@]2(O)CCc1cccc(F)c1C(N)=O [Example 12, 2-{2-[(4aS,5R)-4a-Ethyl-1-(3-fluorophenyl)-5-hydroxy-1,4,4a,5,6,7-hexahydrocyclopenta[f]indazol-5-yl]ethyl}-6-fluorobenzamide] | 0.025 | 87 | 
CC[C@]12Cc3cnn(-c4cccnc4)c3C=C1CC[C@@]2(O)CCc1ccccc1C(N)=O [Example 13, 2-{2-[(4aS,5R)-4a-Ethyl-5-hydroxy-1-(pyridin-3-yl)-1,4,4a,5,6,7-hexahydrocyclopenta[f]indazol-5-yl]ethyl}benzamide] | 0.163 | 76 | 
CC[C@]12Cc3cnn(-c4cccnc4)c3C=C1CC[C@@]2(O)CCc1cccc(F)c1C(N)=O [Example 14, 2-{2-[(4aS,5R)-4a-Ethyl-5-hydroxy-1-(pyridin-3-yl)-1,4,4a,5,6,7-hexahydrocyclopenta[f]indazol-5-yl]ethyl}-6-fluorobenzamide] | 0.043 | 88 | 
CC[C@]12Cc3cnn(-c4ccccc4)c3C=C1CC[C@@]2(O)CCc1cccc(F)c1C#N [Example 15, 2-{2-[(4aS,5R)-4a-Ethyl-5-hydroxy-1-phenyl-1,4,4a,5,6,7-hexahydrocyclopenta[f]indazol-5-yl]ethyl}-6-fluorobenzonitrile] | 0.114 | 89 | 
CC[C@]12Cc3cnn(-c4ccc(F)cc4)c3C=C1CC[C@@]2(O)CCc1ccccn1 [Example 16, (4aS,5R)-4a-Ethyl-1-(4-fluorophenyl)-5-[2-(pyridin-2-yl)ethyl]-1,4,4a,5,6,7-hexahydrocyclopenta[f]indazol-5-ol] | 0.093 | 79 | 
CC[C@]12Cc3cnn(-c4ccc(F)cc4)c3C=C1CC[C@@]2(O)CCc1ncccc1F [Example 17, (4aS,5R)-4a-Ethyl-1-(4-fluorophenyl)-5-[2-(3-fluoropyridin-2-yl)ethyl]-1,4,4a,5,6,7-hexahydrocyclopenta[f]indazol-5-ol] | 0.044 | 89 | 
CC[C@]12Cc3cnn(-c4ccc(F)cc4)c3C=C1CC[C@@]2(O)CCc1cc(F)ccn1 [Example 18, (4aS,5R)-4a-Ethyl-1-(4-fluorophenyl)-5-[2-(4-fluoropyridin-2-yl)ethyl]-1,4,4a,5,6,7-hexahydrocyclopenta[f]indazol-5-ol] | 0.074 | 80 | 
CC[C@]12Cc3cnn(-c4ccc(F)cc4)c3C=C1CC[C@@]2(O)CCc1ccc(F)cn1 [Example 19, (4aS,5R)-4a-Ethyl-1-(4-fluorophenyl)-5-[2-(5-fluoropyridin-2-yl)ethyl]-1,4,4a,5,6,7-hexahydrocyclopenta[f]indazol-5-ol] | 0.263 | 77 | 
CC[C@]12Cc3cnn(-c4ccccc4)c3C=C1CC[C@@]2(O)CCc1ccccc1C(N)=O [Example 20, 2-{2-[(4aS,5R)-4a-Ethyl-5-hydroxy-1-phenyl-1,4,4a,5,6,7-hexahydrocyclopenta[f]indazol-5-yl]ethyl}benzamide] | 0.028 | 86 | 
